# Laboratory results from patent US8318644B2, “Lubricating oil” (Idemitsu Kosan Co., Ltd., priority 2003, dated 2012).
# Test: Density of ionic liquids
# Format: physicochemical
# Conditions: 20° C.
# Procedure: Density and molecular weight (Mw) of Ionic liquids 1 to 4 were determined at 20° C., and each ion concentration was calculated from the relationship: [density of ionic liquid (g/cm^3)/molecular weight (MW) of ionic liquid (g/mol)]×1000.
row,Molecule,density [g/mL]
1,"CCn1cc[n+](C)c1.F[B-](F)(F)F [Ionic liquid 1, 1-Ethyl-3-methylimidazolium tetrafluoroborate]",1.283
2,"CCCCn1cc[n+](C)c1.F[B-](F)(F)F [Ionic liquid 4, 1-Butyl-3-methylimidazolium tetrafluoroborate]",1.208
3,Butylpyridinium bis(trifluoromethanesulfonyl)imide [Ionic liquid 2],1.453
4,"N,N-diethyl-N-methyl(2-methoxyethyl)ammonium bis(trifluoromethanesulfonyl)imide [Ionic liquid 3]",1.420
